The record followed here is ChEMBL document CHEMBL5113400, “Design, synthesis, and biological evaluation of trizole-based heteroaromatic derivatives as Bcr-Abl kinase inhibitors” (Eur J Med Chem, 2022).

Molecules are shown by their SMILES.

Data set [1] deals with K562. In words: Induction of apoptosis in human K562 cells assessed as necrotic cells at 1 uM incubated for 48 hrs by Annexin V-FITC/PI staining based flow cytometry analysis (Rvb= 0.09%). In kind it is functional.
The next data set relates to HEK293. The experiment in a line: Cytotoxicity against human HEK293 cells assessed as inhibition of cell growth upto 100 uM incubated for 48 hrs by MTT assay. In kind it is toxicity, cell-based. As to conditions: hek293, 48 h. On the technique in general: Tetrazolium assays rely on reduction of a dye to a coloured formazan, in cell work by metabolically active cells.

Data set [2] deals with BaF3. The experiment in a line: Antiproliferative activity against mouse BaF3 cells expressing Bcr-Abl T315I mutant assessed as inhibition of cell growth incubated for 72 hrs by CellTiter-Glo luminescent assay. In kind it is functional, cell-based. As to conditions: BaF3, 72 h. On the technique in general: Cellular ATP, detected with luciferase, serves as a proxy for viable cell number.

Data set [3] relates to BaF3. In words: Antiproliferative activity against mouse BaF3 cells assessed as inhibition of cell growth incubated for 72 hrs by CellTiter-Glo luminescent assay. The format is functional, cell-based. As to conditions: BaF3, 72 h.
The target in data set [4] is Platelet-derived growth factor receptor alpha (Homo sapiens) (UniProt P16234). In words: Inhibition of recombinant human PDGFRalpha at 10 uM for 10 mins followed by substrate addition in presence of ATP and measured after 60 mins by HTRF assay. To be noted: time 70.0 min. (In general: TR-FRET usually uses a lanthanide donor and a delayed reading to cut background.)
Platelet-derived growth factor receptor alpha (Homo sapiens), sequence (P16234 whole entry): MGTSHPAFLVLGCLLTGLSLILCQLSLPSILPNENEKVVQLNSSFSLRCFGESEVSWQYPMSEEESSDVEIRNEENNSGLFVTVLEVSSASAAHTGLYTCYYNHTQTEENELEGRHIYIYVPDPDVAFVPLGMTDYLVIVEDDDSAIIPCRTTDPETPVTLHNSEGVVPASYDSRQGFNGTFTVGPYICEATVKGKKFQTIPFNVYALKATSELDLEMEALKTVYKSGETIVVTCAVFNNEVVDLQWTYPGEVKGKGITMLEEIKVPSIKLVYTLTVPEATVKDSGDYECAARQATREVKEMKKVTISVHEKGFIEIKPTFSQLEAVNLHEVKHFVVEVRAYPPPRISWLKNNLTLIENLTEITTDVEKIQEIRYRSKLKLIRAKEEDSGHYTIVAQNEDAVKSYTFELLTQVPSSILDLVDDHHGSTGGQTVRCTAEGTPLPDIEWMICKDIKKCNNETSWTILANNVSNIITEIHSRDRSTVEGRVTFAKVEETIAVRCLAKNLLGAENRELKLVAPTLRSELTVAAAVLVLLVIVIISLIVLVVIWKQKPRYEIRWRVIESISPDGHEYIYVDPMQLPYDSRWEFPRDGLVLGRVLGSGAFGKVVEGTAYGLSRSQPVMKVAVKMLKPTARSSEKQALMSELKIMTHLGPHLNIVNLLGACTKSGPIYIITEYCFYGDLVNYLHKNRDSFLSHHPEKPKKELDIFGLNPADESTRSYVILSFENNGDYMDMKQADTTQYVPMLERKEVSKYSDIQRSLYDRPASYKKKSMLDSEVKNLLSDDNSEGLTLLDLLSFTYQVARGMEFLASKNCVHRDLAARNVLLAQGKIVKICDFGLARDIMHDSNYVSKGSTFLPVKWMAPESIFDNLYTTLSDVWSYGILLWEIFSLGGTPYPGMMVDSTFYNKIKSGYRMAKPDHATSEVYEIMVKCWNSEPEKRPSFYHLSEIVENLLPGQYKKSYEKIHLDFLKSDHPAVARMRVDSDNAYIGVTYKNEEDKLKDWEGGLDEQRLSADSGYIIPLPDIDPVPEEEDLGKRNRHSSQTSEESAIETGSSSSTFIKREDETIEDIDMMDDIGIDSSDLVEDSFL
In data set [5] the target is Dual specificity tyrosine-phosphorylation-regulated kinase 1B (Homo sapiens) (UniProt Q9Y463). In words: Inhibition of recombinant human DYRK1B at 10 uM for 10 mins followed by substrate addition in presence of ATP and measured after 60 mins by HTRF assay. As to conditions: time 70.0 min.
Dual specificity tyrosine-phosphorylation-regulated kinase 1B (Homo sapiens), sequence (Q9Y463 whole entry, looked up): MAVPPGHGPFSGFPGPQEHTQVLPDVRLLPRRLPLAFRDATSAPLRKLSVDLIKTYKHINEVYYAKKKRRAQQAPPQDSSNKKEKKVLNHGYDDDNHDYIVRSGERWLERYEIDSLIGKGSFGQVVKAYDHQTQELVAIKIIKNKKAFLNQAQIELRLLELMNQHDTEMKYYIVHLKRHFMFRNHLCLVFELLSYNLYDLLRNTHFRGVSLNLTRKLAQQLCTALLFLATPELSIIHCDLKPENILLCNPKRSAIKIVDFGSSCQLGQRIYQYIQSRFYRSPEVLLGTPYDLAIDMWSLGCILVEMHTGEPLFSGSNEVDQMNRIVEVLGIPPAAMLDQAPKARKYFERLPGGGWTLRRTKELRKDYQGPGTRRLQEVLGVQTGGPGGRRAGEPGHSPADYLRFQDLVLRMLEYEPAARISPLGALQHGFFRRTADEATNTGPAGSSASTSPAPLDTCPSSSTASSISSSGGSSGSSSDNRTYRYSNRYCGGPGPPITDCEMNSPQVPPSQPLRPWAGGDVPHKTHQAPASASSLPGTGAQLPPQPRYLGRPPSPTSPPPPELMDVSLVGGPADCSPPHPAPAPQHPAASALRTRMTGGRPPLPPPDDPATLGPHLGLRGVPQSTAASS
In data set [6] the target is Tyrosine-protein kinase receptor UFO (Homo sapiens) (UniProt P30530). The experiment in a line: Inhibition of recombinant human AXL at 10 uM for 10 mins followed by substrate addition in presence of ATP and measured after 60 mins by HTRF assay. To be noted: time 70.0 min.
Tyrosine-protein kinase receptor UFO (Homo sapiens), sequence (P30530 whole entry): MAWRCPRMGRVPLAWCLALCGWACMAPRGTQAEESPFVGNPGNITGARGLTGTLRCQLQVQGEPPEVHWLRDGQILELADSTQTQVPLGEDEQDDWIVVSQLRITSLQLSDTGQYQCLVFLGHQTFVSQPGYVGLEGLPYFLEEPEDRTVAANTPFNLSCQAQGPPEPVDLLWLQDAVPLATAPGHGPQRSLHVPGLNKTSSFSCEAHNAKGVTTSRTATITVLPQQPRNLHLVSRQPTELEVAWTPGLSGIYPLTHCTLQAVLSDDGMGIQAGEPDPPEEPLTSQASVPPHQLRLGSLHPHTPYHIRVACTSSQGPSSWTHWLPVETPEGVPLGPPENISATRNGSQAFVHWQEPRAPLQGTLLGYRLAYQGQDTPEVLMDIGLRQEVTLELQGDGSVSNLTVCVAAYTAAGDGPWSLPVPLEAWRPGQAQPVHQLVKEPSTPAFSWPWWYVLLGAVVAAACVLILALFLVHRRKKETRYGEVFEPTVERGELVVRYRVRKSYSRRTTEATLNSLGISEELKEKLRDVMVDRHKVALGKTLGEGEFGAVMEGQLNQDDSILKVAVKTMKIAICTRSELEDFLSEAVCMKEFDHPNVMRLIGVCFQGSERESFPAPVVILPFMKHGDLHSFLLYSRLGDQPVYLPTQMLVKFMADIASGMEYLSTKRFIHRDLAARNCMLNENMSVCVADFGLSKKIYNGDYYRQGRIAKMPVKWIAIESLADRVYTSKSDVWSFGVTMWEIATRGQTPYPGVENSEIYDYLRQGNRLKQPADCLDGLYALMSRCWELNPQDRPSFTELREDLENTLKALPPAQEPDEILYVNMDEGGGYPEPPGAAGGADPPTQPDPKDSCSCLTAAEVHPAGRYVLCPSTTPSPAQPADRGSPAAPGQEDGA
Data set [7] shares this target. In words: Inhibition of recombinant human AXL at 10 uM for 10 mins followed by substrate addition in presence of ATP and measured after 100 mins by ADP-Glo kinase assay. To be noted: time 110.0 min.
Data set [8] has as its target Vascular endothelial growth factor receptor 2 (Homo sapiens) (UniProt P35968). The experiment in a line: Inhibition of recombinant human KDR at 10 uM for 10 mins followed by substrate addition in presence of ATP and measured after 100 mins by ADP-Glo kinase assay. As to conditions: time 110.0 min.
In data set [9] the target is Dual specificity protein kinase CLK1 (Homo sapiens) (UniProt P49759). The experiment in a line: Inhibition of recombinant human CLK1 at 10 uM for 10 mins followed by substrate addition in presence of ATP and measured after 60 mins by HTRF assay. As to conditions: time 70.0 min.
Dual specificity protein kinase CLK1 (Homo sapiens), sequence (P49759 whole entry, looked up): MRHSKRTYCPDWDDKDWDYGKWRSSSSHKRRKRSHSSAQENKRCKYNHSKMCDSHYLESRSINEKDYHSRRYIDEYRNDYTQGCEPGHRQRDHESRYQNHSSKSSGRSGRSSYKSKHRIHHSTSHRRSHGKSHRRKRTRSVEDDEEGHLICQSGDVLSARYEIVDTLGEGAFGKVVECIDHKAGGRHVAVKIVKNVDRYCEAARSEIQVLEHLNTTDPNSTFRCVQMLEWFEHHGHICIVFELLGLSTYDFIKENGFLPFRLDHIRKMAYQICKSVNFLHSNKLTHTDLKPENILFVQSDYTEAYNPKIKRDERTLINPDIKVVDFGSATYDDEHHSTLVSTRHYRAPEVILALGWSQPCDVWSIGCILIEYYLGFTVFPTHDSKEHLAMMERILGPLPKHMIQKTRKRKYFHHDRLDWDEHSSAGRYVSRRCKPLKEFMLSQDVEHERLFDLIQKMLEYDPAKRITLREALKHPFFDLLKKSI
Data set [10] has the same target. In words: Inhibition of recombinant human CLK1 at 10 uM for 10 mins followed by substrate addition in presence of ATP and measured after 100 mins by ADP-Glo kinase assay. As to conditions: time 110.0 min.
Data set [11] addresses T1, Tyrosine-protein kinase ITK/TSK (Homo sapiens) (UniProt Q08881).
T1 sequence (whole entry): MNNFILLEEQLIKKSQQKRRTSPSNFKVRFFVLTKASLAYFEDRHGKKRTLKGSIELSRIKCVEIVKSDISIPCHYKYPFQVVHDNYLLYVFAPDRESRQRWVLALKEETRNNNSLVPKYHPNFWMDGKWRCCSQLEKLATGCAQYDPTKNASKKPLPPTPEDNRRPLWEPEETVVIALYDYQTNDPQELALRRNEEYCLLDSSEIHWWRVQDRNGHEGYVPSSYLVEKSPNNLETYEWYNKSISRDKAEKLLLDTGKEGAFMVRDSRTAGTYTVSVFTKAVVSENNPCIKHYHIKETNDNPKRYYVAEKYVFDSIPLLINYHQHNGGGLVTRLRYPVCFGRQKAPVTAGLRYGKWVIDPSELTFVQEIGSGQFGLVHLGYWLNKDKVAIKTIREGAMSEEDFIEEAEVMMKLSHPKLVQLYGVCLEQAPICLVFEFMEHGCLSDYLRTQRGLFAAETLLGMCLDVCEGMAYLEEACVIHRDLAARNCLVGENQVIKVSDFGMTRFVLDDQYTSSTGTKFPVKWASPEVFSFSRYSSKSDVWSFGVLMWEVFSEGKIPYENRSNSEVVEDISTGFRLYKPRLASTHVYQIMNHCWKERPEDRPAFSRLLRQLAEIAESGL
The experiment in a line: Inhibition of recombinant human ITK at 10 uM for 10 mins followed by substrate addition in presence of ATP and measured after 60 mins by HTRF assay. As to conditions: time 70.0 min.

The test system of data set [12] is K562. In words: Induction of apoptosis in human K562 cells assessed as necrotic cells at 5 uM incubated for 48 hrs by Annexin V-FITC/PI staining based flow cytometry analysis (Rvb= 0.09%). In kind it is functional.
For data set [13], the system named is K562. The experiment in a line: Induction of apoptosis in human K562 cells assessed as necrotic cells at 10 uM incubated for 48 hrs by Annexin V-FITC/PI staining based flow cytometry analysis (Rvb= 0.09%). In kind it is functional.
In data set [14] the test system is K562. The experiment in a line: Induction of apoptosis in human K562 cells assessed as early apoptotic cells at 5 uM incubated for 48 hrs by Annexin V-FITC/PI staining based flow cytometry analysis (Rvb= 4.35%). The format is functional.
Data set [15] concerns K562. In words: Induction of apoptosis in human K562 cells assessed as late apoptotic cells at 1 uM incubated for 48 hrs by Annexin V-FITC/PI staining based flow cytometry analysis (Rvb= 14.66%). The format is functional.
Data set [16] relates to K562. In words: Induction of apoptosis in human K562 cells assessed as viable cells at 10 uM incubated for 48 hrs by Annexin V-FITC/PI staining based flow cytometry analysis (Rvb=80.89%). In kind it is functional. To be noted: read-out: Activity.
For data set [17], the target named is T2, Signal transducer and activator of transcription 5A (Homo sapiens) (UniProt P42229).
T2 sequence (whole entry): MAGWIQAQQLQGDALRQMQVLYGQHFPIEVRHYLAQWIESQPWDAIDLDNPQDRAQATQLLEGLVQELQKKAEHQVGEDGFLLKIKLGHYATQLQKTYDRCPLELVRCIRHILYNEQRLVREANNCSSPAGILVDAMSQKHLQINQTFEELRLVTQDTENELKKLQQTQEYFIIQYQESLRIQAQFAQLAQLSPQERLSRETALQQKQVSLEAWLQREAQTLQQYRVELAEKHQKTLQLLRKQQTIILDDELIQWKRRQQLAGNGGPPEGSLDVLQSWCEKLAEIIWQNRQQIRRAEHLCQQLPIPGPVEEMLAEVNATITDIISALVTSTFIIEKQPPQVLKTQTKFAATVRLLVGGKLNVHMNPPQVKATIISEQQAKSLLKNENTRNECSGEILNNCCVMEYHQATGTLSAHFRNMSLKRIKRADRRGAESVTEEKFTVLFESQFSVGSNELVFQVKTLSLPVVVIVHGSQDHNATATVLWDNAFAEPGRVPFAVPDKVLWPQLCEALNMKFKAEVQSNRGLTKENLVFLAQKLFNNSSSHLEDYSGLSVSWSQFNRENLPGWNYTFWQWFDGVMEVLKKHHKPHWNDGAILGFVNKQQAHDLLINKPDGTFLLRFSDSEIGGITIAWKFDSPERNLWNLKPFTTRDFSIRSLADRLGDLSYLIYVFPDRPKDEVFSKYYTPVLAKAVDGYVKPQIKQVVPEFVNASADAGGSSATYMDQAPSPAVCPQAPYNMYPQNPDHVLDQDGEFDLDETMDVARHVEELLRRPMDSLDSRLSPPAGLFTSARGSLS
The experiment in a line: Inhibition of STAT5 phosphorylation at Tyr694 residue in human K562 cells expressing wild type Bcr-Abl at 0.1 to 15 uM measured after 48 hrs by Western blot analysis. In kind it is cell-based. To be noted: dose 0.1-15 µM, DDE = dose-dependent effect.

Vascular endothelial growth factor receptor 2 (Homo sapiens), sequence (P35968 whole entry): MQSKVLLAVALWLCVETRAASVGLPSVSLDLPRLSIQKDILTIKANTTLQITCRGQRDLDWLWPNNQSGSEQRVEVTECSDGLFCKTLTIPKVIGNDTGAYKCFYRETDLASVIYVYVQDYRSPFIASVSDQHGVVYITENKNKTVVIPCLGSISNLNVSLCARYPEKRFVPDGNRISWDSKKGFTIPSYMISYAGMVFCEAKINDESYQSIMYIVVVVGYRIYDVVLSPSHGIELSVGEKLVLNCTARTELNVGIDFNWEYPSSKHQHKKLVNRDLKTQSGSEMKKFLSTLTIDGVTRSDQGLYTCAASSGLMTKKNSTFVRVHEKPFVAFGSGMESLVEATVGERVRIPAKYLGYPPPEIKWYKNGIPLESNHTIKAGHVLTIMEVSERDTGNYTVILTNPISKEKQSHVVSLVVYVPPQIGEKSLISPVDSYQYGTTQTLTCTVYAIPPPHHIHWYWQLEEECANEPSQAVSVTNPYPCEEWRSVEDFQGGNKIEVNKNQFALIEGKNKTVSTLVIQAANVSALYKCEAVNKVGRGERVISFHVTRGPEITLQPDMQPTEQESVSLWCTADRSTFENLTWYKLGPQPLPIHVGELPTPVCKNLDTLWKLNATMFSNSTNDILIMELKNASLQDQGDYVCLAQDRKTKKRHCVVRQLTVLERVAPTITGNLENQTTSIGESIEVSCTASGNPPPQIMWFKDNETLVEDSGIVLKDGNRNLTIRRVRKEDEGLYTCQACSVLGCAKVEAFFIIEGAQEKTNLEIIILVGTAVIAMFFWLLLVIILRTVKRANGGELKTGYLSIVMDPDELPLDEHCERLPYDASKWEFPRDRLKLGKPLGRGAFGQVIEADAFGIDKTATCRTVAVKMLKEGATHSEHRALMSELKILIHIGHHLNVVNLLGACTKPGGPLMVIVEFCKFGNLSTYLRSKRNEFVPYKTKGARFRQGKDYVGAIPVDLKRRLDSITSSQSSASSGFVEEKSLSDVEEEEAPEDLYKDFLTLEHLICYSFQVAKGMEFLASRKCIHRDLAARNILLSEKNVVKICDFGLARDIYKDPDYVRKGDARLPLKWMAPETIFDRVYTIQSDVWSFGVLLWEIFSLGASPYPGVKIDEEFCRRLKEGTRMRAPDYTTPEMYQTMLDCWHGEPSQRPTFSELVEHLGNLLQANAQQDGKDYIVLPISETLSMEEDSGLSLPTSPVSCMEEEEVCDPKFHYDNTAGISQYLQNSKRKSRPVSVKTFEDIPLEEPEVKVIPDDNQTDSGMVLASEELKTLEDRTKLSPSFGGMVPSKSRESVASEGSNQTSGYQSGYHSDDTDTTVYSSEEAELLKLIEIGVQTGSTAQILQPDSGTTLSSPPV

A word on the IC50: it is the concentration at which inhibition is half-maximal. What is called inhibition is the percentage by which the read-out fell short of the control. With `O=C(Nc1nc2ccc(-c3cn([C@@H]4CN[C@H](C(=O)Nc5ccc(Cl)cc5Cl)C4)nn3)nc2s1)C1CC1`, the Activity with K562 [1] was 0.06%; in the data set with HEK293 it was “Non-Toxic”; with K562 [12], 0.03%; with K562 [13], 0.01%; in the data set on K562 [14] it was 4.85%; with K562 [15], 19.42%. Also, the IC50 with BaF3 [2] is 672 nM; in the data set on BaF3 [3] it was greater than 20000 nM. The inhibition was 87.9% in [4]; 68.4% in data set [5]; 56.4% in [6]; 56.4% in [7]; 47.7% in data set [8]; 44.2% in data set [9]. Further, the inhibition in data set [10] is 44.2%; in data set [11] it was 41.1%; in data set [17] it was “Dde”. The viability at 10 µM with K562 [16] was found to be 49.7%.
